Measured values as given in PubChem BioAssay AID328 (DTP/NCI, 2004).
Where “and” joins values, the source holds several entries; their conditions need not be identical. Identical values can stand only once. Inconclusive results and toxic doses are left out.

Test system: BDF1 mice, P388 leukemia ip, median survival T/C
Assay: NCI In Vivo Anticancer Drug Screen. Data for tumor model P388 Leukemia (intraperitoneal) in B6D2F1 (BDF1) mice
Conditions: endpoint: median survival time, higher = longer survival
Method in brief: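 T/C = treated-group survival ÷ vehicle-control survival; tumour transplanted into mice before dosing.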

[1] = dose: 100.0 mg/kg/injection, schedule: Q01DX009 (ip), vehicle: Klucel (hydroxypropylcellulose) (HPC)
[2] = dose: 100.0 mg/kg/injection, schedule: Q04DX003 (ip), vehicle: Klucel (hydroxypropylcellulose) (HPC)
[3] = dose: 100.0 mg/kg/injection, schedule: Q04DX003 (ip), vehicle: saline
[4] = dose: 200.0 mg/kg/injection, schedule: Q01DX009 (ip), vehicle: Klucel (hydroxypropylcellulose) (HPC)
[5] = dose: 200.0 mg/kg/injection, schedule: Q04DX003 (ip), vehicle: Klucel (hydroxypropylcellulose) (HPC)
[6] = dose: 400.0 mg/kg/injection, schedule: Q01DX009 (ip), vehicle: Klucel (hydroxypropylcellulose) (HPC)
[7] = dose: 400.0 mg/kg/injection, schedule: Q04DX003 (ip), vehicle: Klucel (hydroxypropylcellulose) (HPC)

CCOC(=O)c1cnn(-c2ccccc2)c1N
T/C (dose: 6.25 mg/kg/injection, schedule: Q04DX003 (ip), vehicle: saline): 110 % of control | T/C (dose: 12.5 mg/kg/injection, schedule: Q01DX009 (ip), vehicle: saline): 102 % of control | T/C (dose: 12.5 mg/kg/injection, schedule: Q04DX003 (ip), vehicle: saline): 107 % of control | T/C (dose: 25.0 mg/kg/injection, schedule: Q01DX009 (ip), vehicle: saline): 96 % of control | T/C (dose: 25.0 mg/kg/injection, schedule: Q04DX003 (ip), vehicle: saline): 100 % of control | T/C (dose: 50.0 mg/kg/injection, schedule: Q01DX009 (ip), vehicle: saline with Tween-80): 243 % of control | T/C (dose: 50.0 mg/kg/injection, schedule: Q01DX009 (ip), vehicle: saline): 96 % of control and 104 % of control | T/C (dose: 50.0 mg/kg/injection, schedule: Q04DX003 (ip), vehicle: saline): 100 % of control | T/C [1]: 104 % of control | T/C (dose: 100.0 mg/kg/injection, schedule: Q01DX009 (ip), vehicle: saline with Tween-80): 241 % of control | T/C (dose: 100.0 mg/kg/injection, schedule: Q01DX009 (ip), vehicle: saline): 104 % of control and 105 % of control | T/C [2]: 95 % of control | T/C [3]: 95 % of control | T/C [4]: 95 % of control | T/C (dose: 200.0 mg/kg/injection, schedule: Q01DX009 (ip), vehicle: saline with Tween-80): 91 % of control | T/C (dose: 200.0 mg/kg/injection, schedule: Q01DX009 (ip), vehicle: saline): 86 % of control | T/C [5]: 100 % of control | T/C [6]: 86 % of control | T/C [7]: 87 % of control

COc1ccc2nc3cc(Cl)ccc3c(Nc3ccc(O)c(CN(CCCl)CCCl)c3)c2c1
T/C (dose: 0.06 mg/kg/injection, schedule: Q01DX009 (ip), vehicle: saline with Tween-80): 105 % of control | T/C (dose: 0.09 mg/kg/injection, schedule: Q01DX009 (ip), vehicle: saline with Tween-80): 99 % of control | T/C (dose: 0.13 mg/kg/injection, schedule: Q01DX009 (ip), vehicle: saline with Tween-80): 89 % of control | T/C (dose: 0.22 mg/kg/injection, schedule: Q04DX003 (ip), vehicle: saline): 100 % of control | T/C (dose: 0.33 mg/kg/injection, schedule: Q04DX003 (ip), vehicle: saline): 118 % of control | T/C (dose: 0.5 mg/kg/injection, schedule: Q01DX009 (ip), vehicle: saline): 177 % of control | T/C (dose: 1.0 mg/kg/injection, schedule: Q01DX009 (ip), vehicle: saline): 163 % of control | T/C (dose: 1.0 mg/kg/injection, schedule: Q04DX003 (ip), vehicle: saline): 159 % of control | T/C (dose: 1.33 mg/kg/injection, schedule: Q04DX003 (ip), vehicle: saline): 154 % of control | T/C (dose: 2.0 mg/kg/injection, schedule: Q01DX009 (ip), vehicle: saline): 104 % of control | T/C (dose: 2.0 mg/kg/injection, schedule: Q04DX003 (ip), vehicle: saline): 158 % of control and 181 % of control | T/C (dose: 3.0 mg/kg/injection, schedule: Q04DX003 (ip), vehicle: saline): 158 % of control and 179 % of control | T/C (dose: 4.5 mg/kg/injection, schedule: Q04DX003 (ip), vehicle: saline): 195 % of control | T/C (dose: 6.7 mg/kg/injection, schedule: Q04DX003 (ip), vehicle: saline): 179 % of control | T/C (dose: 10.0 mg/kg/injection, schedule: Q04DX003 (ip), vehicle: saline): 183 % of control

C(#CSCc1ccccc1)SCc1ccccc1
T/C [1]: 105 % of control | T/C [2]: 87 % of control | T/C [4]: 100 % of control | T/C [5]: 100 % of control | T/C [6]: 100 % of control | T/C [7]: 91 % of control

Cc1cc(O)c2c(c1O)C(=O)c1ccccc1C2=O
T/C [3]: 91 % of control | T/C (dose: 200.0 mg/kg/injection, schedule: Q04DX003 (ip), vehicle: saline): 95 % of control | T/C (dose: 400.0 mg/kg/injection, schedule: Q04DX003 (ip), vehicle: saline): 95 % of control

CCCCCCCNC(C)(C)C(SS)c1ccc(Cl)cc1 (stereo unspecified)
T/C (dose: 100.0 mg/kg/injection, schedule: Q04DX003 (sc), vehicle: olive oil, sesame oil, peanut oil): 100 % of control | T/C (dose: 200.0 mg/kg/injection, schedule: Q04DX003 (sc), vehicle: olive oil, sesame oil, peanut oil): 109 % of control | T/C (dose: 400.0 mg/kg/injection, schedule: Q04DX003 (sc), vehicle: olive oil, sesame oil, peanut oil): 100 % of control
